Assay [1] concerns the target JAK2 kinase activity on STAT5 in TF1 cells (Homo sapiens, UniProt O60674). Description: pSTAT5 cell assay (MSD; TF1 cells, 30 ng/mL IL-3 stimulation). To be noted: 30 ng/mL IL-3, 15 minutes. The format is cell-based. Put shortly:
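IC50 from a 4-parameter logistic fit of normalized pSTAT5 signal, measured by MSD in lysates of TF1 cells. Cells were serum-starved, exposed to compound for 1 h (top concentration 10 μM, four-fold, 10 points), then given IL-3 at 30 ng/mL for 15 min.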

Assay [2] deals with T1, human JAK2 kinase domain (JH1) (Homo sapiens, UniProt O60674).
T1 construct: recombinantly generated catalytic kinase (also known as JH1) domain of human JAK1, JAK2, JAK3 and TYK2
Description: JH1 biochemical assay for JAK2 (ADP-Glo kinase assay, recombinant JH1 catalytic domain, JAK3-974 peptide, 15 μM ATP). Particulars: JAK2 JH1, ADP-Glo. In short, it runs like this:
(§1)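 Compounds were titrated in 11 points of 3-fold dilution starting at 10 μM or 1 μM. Enzyme (JAK1 4 nM, JAK2 0.2 nM, JAK3 0.3 nM, TYK2 2 nM) and 50 μM peptide reacted for 100 minutes, followed by ADP-to-luminescence detection; IC50 by 4-parameter fit.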
(In general: ADP-Glo turns the ADP formed in a reaction into a luminescent signal.)

Assay [3] deals with Tyk2 kinase activity on STAT4 in NK92 cells (Homo sapiens, UniProt P29597). Description: pSTAT4 cell assay (MSD; NK92 cells, 30 ng/mL IL2 stimulation). The format is cell-based. Particulars: 30 ng/mL IL2, 15 minutes. Put shortly:
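Compound treatment of starved NK92 cells ran 1 hr before a 15-minute, 30 ng/mL IL2 pulse; lysates went to an MSD anti-STAT4 antibody assay, with curves fitted by 4-parameter logistic model.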

Assay [4] has as its target T2, human TYK2 kinase domain (JH1) (Homo sapiens, UniProt P29597).
T2 construct: recombinantly generated catalytic kinase (also known as JH1) domain of human JAK1, JAK2, JAK3 and TYK2
T2 sequence (P29597 897-1176 limits assumed): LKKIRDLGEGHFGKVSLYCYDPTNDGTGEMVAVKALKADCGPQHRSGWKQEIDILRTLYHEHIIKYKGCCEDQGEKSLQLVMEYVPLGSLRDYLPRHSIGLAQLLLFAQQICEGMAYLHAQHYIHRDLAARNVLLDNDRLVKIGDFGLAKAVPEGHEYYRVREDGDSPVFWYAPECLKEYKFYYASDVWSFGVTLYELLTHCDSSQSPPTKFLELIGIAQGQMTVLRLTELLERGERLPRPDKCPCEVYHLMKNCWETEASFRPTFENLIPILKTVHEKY
The experiment in a line: JH1 biochemical assay for TYK2 (ADP-Glo kinase assay, recombinant JH1 catalytic domain, JAK3-974 peptide, 10 μM ATP). Particulars: TYK2 JH1, ADP-Glo. Put shortly: as §1

In assay [5] the target is T3, human JAK1 kinase domain (JH1) (Homo sapiens, UniProt P23458).
T3 construct: recombinantly generated catalytic kinase (also known as JH1) domain of human JAK1, JAK2, JAK3 and TYK2
The experiment in a line: JH1 biochemical assay for JAK1 (ADP-Glo kinase assay, recombinant JH1 catalytic domain, JAK3-342 peptide, 35 μM ATP). To be noted: JAK1 JH1, ADP-Glo. Put shortly: as §1

Assay [6] deals with T4, human JAK3 kinase domain (JH1) (Homo sapiens, UniProt P52333).
T4 construct: recombinantly generated catalytic kinase (also known as JH1) domain of human JAK1, JAK2, JAK3 and TYK2
Description: JH1 biochemical assay for JAK3 (ADP-Glo kinase assay, recombinant JH1 catalytic domain, JAK3-974 peptide, 4 μM ATP). Particulars: JAK3 JH1, ADP-Glo. In short, it runs like this: as §1

The target of assay [7] is JAK1 kinase activity on STAT3 in TF1 cells (Homo sapiens, UniProt P23458). Description: pSTAT3 cell assay (MSD; TF1 cells, 30 ng/mL IL-6 stimulation). The class given is cell-based. To be noted: 30 ng/mL IL-6, 15 minutes. Put shortly:
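IC50 values reflect 4-parameter logistic fits of normalized pSTAT3 signal, measured by MSD in lysed TF1 cells. Cells were serum-starved and treated with compound for 1 h (top concentration 10 μM) before a 15 min IL-6 challenge.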

Structures can show the parent of a compound that is named as a salt.

T4 sequence (P52333 822-1111 limits assumed): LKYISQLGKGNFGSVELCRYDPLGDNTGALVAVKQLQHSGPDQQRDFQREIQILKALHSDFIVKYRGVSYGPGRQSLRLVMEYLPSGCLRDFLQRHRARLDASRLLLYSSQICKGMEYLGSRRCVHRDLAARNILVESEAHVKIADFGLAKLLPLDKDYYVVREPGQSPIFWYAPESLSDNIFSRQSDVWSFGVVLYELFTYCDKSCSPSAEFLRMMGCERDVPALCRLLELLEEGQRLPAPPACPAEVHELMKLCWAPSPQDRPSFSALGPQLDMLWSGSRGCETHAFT
T3 sequence (P23458 875-1153 limits assumed): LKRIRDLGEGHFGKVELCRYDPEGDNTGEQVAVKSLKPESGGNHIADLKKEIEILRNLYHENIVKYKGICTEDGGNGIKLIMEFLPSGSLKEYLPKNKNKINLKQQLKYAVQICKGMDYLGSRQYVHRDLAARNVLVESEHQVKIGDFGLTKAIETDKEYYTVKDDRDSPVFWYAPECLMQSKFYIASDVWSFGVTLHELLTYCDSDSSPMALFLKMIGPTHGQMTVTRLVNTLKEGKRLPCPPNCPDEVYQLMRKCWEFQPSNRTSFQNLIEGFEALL
T1 sequence (O60674 849-1124 limits assumed): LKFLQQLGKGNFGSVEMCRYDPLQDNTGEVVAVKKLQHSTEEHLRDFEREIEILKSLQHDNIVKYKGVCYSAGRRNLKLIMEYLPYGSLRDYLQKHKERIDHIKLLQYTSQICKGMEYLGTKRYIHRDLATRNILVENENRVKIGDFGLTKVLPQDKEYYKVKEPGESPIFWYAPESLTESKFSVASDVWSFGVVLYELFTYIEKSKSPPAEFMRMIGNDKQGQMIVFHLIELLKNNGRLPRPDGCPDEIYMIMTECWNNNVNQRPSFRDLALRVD
Sequence of JAK2 kinase activity on STAT5 in TF1 cells (O60674 whole entry): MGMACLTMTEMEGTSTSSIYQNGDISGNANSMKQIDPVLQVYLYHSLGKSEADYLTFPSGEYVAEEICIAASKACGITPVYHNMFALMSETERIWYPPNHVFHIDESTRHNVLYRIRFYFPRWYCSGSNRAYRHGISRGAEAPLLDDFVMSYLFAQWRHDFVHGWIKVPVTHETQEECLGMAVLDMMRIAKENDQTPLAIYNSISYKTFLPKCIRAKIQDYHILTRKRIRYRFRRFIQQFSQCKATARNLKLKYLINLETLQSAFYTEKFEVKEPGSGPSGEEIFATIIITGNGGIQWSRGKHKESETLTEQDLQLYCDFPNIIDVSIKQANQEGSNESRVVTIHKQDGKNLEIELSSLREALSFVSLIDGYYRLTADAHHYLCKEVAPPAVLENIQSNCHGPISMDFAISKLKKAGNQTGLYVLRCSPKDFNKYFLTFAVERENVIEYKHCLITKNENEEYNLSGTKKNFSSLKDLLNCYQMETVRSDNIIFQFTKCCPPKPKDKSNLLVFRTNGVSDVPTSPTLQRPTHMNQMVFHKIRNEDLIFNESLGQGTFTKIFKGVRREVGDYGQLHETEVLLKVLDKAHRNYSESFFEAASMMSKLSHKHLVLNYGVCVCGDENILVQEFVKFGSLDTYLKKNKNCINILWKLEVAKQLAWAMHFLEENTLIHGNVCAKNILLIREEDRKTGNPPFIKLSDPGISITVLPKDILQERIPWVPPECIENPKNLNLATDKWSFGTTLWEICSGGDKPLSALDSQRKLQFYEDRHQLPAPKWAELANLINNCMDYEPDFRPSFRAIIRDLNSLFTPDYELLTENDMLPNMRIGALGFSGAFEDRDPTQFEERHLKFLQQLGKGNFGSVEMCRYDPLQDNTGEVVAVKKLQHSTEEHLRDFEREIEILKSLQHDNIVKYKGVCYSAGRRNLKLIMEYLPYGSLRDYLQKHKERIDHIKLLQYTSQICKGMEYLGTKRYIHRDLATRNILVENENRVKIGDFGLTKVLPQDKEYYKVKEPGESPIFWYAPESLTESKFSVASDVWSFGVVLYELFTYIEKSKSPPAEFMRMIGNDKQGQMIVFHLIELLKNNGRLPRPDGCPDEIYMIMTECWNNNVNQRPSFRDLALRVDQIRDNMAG
Sequence of JAK1 kinase activity on STAT3 in TF1 cells (P23458 whole entry): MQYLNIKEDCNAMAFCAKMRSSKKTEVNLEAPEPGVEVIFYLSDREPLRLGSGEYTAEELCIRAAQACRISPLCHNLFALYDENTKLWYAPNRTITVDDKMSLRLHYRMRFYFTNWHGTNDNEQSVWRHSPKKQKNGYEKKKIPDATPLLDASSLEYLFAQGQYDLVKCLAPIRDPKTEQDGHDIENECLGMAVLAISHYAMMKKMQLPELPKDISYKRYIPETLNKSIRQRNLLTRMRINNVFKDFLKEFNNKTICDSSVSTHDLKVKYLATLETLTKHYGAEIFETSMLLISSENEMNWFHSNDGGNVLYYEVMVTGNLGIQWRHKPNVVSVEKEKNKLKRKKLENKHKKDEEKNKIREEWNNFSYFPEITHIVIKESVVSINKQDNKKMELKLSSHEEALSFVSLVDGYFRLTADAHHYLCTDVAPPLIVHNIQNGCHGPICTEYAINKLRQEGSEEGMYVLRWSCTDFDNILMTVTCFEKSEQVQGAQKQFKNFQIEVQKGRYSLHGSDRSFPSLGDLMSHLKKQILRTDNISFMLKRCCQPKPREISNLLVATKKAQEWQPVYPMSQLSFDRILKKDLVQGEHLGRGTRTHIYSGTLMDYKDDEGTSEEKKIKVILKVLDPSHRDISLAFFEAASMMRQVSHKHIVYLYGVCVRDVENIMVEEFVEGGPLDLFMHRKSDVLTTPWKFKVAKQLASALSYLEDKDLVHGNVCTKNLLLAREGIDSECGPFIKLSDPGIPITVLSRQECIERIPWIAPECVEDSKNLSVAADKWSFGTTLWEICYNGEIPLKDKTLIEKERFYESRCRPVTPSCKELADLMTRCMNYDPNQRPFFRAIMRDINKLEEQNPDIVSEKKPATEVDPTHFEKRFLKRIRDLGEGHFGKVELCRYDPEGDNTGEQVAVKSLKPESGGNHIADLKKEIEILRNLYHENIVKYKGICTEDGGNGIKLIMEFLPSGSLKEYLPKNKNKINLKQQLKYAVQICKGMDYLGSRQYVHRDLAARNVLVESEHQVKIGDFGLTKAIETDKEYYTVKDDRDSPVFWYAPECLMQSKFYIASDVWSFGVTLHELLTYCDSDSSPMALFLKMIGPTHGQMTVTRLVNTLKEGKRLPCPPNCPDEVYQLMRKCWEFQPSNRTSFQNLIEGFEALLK
Sequence of Tyk2 kinase activity on STAT4 in NK92 cells (P29597 whole entry): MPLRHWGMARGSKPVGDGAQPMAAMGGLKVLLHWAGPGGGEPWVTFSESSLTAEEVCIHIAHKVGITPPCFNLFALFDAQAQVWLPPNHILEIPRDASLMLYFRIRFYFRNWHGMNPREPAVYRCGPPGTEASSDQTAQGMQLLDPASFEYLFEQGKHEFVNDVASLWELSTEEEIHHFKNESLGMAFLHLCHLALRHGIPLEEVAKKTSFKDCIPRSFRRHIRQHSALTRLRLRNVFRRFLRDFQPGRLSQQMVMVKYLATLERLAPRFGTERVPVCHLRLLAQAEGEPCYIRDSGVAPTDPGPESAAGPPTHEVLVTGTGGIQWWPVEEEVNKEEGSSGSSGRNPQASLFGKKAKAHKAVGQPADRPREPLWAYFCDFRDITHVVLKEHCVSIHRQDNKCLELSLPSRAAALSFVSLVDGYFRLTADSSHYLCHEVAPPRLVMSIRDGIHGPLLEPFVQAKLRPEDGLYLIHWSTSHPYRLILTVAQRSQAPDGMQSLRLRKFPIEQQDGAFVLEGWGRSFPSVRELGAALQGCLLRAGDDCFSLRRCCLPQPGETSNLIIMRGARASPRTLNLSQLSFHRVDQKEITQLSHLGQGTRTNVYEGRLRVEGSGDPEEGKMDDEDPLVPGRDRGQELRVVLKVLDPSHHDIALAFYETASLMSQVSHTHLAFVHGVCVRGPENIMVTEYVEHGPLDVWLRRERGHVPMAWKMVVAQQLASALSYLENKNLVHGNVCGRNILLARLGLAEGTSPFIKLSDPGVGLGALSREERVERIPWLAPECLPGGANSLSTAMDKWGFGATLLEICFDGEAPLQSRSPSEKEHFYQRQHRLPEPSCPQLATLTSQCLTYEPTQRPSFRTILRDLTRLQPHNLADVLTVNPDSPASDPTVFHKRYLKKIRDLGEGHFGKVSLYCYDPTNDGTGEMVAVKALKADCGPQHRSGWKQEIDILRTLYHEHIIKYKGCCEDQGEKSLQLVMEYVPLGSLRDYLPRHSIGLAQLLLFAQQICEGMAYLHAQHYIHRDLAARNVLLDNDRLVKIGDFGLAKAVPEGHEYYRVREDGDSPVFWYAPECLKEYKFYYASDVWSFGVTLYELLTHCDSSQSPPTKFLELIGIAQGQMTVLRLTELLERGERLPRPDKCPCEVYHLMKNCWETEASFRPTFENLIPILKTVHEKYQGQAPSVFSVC

Take `COc1cncc(-c2cn3nccc3c(N3C[C@@H](C)[C@@](C#N)(C4CC4)C3=O)n2)c1` [Example 244, (3R,4S)-3-cyclopropyl-1-(6-(5-methoxypyridin-3-yl)pyrazolo[1,5-a]pyrazin-4-yl)-4-methyl-2-oxopyrrolidine-3-carbonitrile trifluoroacetate]: the IC50 (commonly the concentration that gives 50% inhibition) is greater than 10000 nM in assay [1]; 100 to 1000 nM in assay [2]; greater than 100 nM in assay [3]; 5 to 20 nM in assay [4]; 100 to 1000 nM in assay [5]; 100 to 1000 nM in assay [6]. In assay [7], this compound yielded an IC50 of 5000 to 10000 nM.

Turning to `C[C@@H]1CN(c2nc(-c3ccc(=O)n(C)c3)cn3nccc23)C(=O)[C@]1(C#N)C1CC1` [Example 245, (3R,4S)-3-cyclopropyl-4-methyl-1-(6-(1-methyl-6-oxo-1,6-dihydropyridin-3-yl)pyrazolo[1,5-a]pyrazin-4-yl)-2-oxopyrrolidine-3-carbonitrile], the IC50 was 1000 to 5000 nM in assay [1]; 100 to 1000 nM in assay [2]; 50 to 100 nM in assay [3]; less than 5 nM in assay [4]; less than 100 nM in assay [5]; less than 100 nM in assay [6]. Also, the IC50 in assay [7] lay in the range of 100 to 1000 nM.

For the compound `C[C@@H]1CN(c2nc(-c3cnn(C4COC4)c3)cn3nccc23)C(=O)[C@]1(C#N)C1CC1` [Example 251, (3R,4S)-3-cyclopropyl-4-methyl-1-(6-(1-(oxetan-3-yl)-1H-pyrazol-4-yl)pyrazolo[1,5-a]pyrazin-4-yl)-2-oxopyrrolidine-3-carbonitrile], the IC50 in assay [1] was 100 to 1000 nM; in assay [2], less than 100 nM; in assay [3], 20 to 50 nM; in assay [4] it was less than 5 nM; in assay [5] it was less than 100 nM; in assay [6], less than 100 nM. Also, the IC50 in assay [7] was in the range of 100 to 1000 nM.

In the case of `CNC(=O)c1cc(-c2cn3nccc3c(N3C[C@@H](C)[C@@](C#N)(C4CC4)C3=O)n2)ccn1` [Example 252, 4-(4-((3R,4S)-3-cyano-3-cyclopropyl-4-methyl-2-oxopyrrolidin-1-yl)pyrazolo[1,5-a]pyrazin-6-yl)-N-methylpicolinamide trifluoroacetate], the IC50 in assay [1] was greater than 10000 nM; in assay [2] it was 100 to 1000 nM; in assay [3] it was greater than 100 nM; in assay [4] it was 5 to 20 nM; in assay [5], 100 to 1000 nM; in assay [6], 100 to 1000 nM. This compound also displayed an IC50 in assay [7] of 1000 to 5000 nM.

For the compound `C[C@@H]1CN(c2nc(-c3ccc(S(C)(=O)=O)nc3)cn3nccc23)C(=O)[C@]1(C#N)C1CC1` [Example 257, (3R,4S)-3-cyclopropyl-4-methyl-1-(6-(6-(methylsulfonyl)pyridin-3-yl)pyrazolo[1,5-a]pyrazin-4-yl)-2-oxopyrrolidine-3-carbonitrile trifluoroacetate], the IC50 in assay [1] is 5000 to 10000 nM; in assay [2], 100 to 1000 nM; in assay [3], greater than 100 nM; in assay [4] it was 5 to 20 nM; in assay [5] it was less than 100 nM; in assay [6] it was 100 to 1000 nM. The compound also registered an IC50 in assay [7] of 1000 to 5000 nM.

In the case of `C[C@@H]1CN(c2nc(-c3cncc(O)c3)cn3nccc23)C(=O)[C@]1(C#N)C1CC1` [Example 258, (3R,4S)-3-cyclopropyl-1-(6-(5-hydroxypyridin-3-yl)pyrazolo[1,5-a]pyrazin-4-yl)-4-methyl-2-oxopyrrolidine-3-carbonitrile trifluoroacetate], the IC50 is greater than 10000 nM in assay [1]; 100 to 1000 nM in assay [2]; greater than 100 nM in assay [3]; 5 to 20 nM in assay [4]; less than 100 nM in assay [5]; less than 100 nM in assay [6]. Also, in assay [7], the IC50 was 1000 to 5000 nM.

Consider `C[C@@H]1CN(c2nc(-c3ccc4cnn(C)c4c3)cn3nccc23)C(=O)[C@]1(C#N)C1CC1` [Example 259, (3R,4S)-3-cyclopropyl-4-methyl-1-(6-(1-methyl-1H-indazol-6-yl)pyrazolo[1,5-a]pyrazin-4-yl)-2-oxopyrrolidine-3-carbonitrile trifluoroacetate], for which the IC50 in assay [1] was 100 to 1000 nM; in assay [2], less than 100 nM; in assay [3], 5 to 20 nM; in assay [4], less than 5 nM; in assay [5], less than 100 nM; in assay [6], less than 100 nM. In assay [7], the IC50 is less than 100 nM.

On to `C[C@@H]1CN(c2nc(-c3ccn(C)c(=O)c3)cn3nccc23)C(=O)[C@]1(C#N)C1CC1` [Example 261, (3R,4S)-3-cyclopropyl-4-methyl-1-(6-(1-methyl-2-oxo-1,2-dihydropyridin-4-yl)pyrazolo[1,5-a]pyrazin-4-yl)-2-oxopyrrolidine-3-carbonitrile trifluoroacetate], for which the IC50 was 1000 to 5000 nM in assay [1]; 100 to 1000 nM in assay [2]; greater than 100 nM in assay [3]; less than 5 nM in assay [4]; 100 to 1000 nM in assay [5]; less than 100 nM in assay [6]. Also, the IC50 in assay [7] lay in the range of 1000 to 5000 nM.

For `C[C@@H]1CN(c2nc(-c3ccc4nccn4c3)cn3nccc23)C(=O)[C@]1(C#N)C1CC1` [Example 263, (3R,4S)-3-cyclopropyl-1-(6-(imidazo[1,2-a]pyridin-6-yl)pyrazolo[1,5-a]pyrazin-4-yl)-4-methyl-2-oxopyrrolidine-3-carbonitrile trifluoroacetate], the IC50 in assay [1] is 100 to 1000 nM; in assay [2] it was less than 100 nM; in assay [3], 20 to 50 nM; in assay [4], less than 5 nM; in assay [5] it was less than 100 nM; in assay [6], less than 100 nM. Moreover, the IC50 in assay [7] is less than 100 nM.

For the compound `C[C@@H]1CN(c2nc(-c3cnc(N(C)C)nc3)cn3nccc23)C(=O)[C@]1(C#N)C1CC1` [Example 264, (3R,4S)-3-cyclopropyl-1-(6-(2-(dimethylamino)pyrimidin-5-yl)pyrazolo[1,5-a]pyrazin-4-yl)-4-methyl-2-oxopyrrolidine-3-carbonitrile trifluoroacetate], the IC50 is greater than 10000 nM in assay [1]; 1000 to 5000 nM in assay [2]; 50 to 100 nM in assay [3]; 5 to 20 nM in assay [4]; 100 to 1000 nM in assay [5]; 100 to 1000 nM in assay [6]. In assay [7], this compound had an IC50 greater than 10000 nM.

In the case of `C[C@@H]1CN(c2nc(-c3ccc(O)nc3)cn3nccc23)C(=O)[C@]1(C#N)C1CC1` [Example 267, (3R,4S)-3-cyclopropyl-1-(6-(6-hydroxypyridin-3-yl)pyrazolo[1,5-a]pyrazin-4-yl)-4-methyl-2-oxopyrrolidine-3-carbonitrile trifluoroacetate], the IC50 in assay [1] is 100 to 1000 nM; in assay [2] it was 100 to 1000 nM; in assay [3] it was 50 to 100 nM; in assay [4], less than 5 nM; in assay [5] it was less than 100 nM; in assay [6], less than 100 nM. Moreover, the IC50 in assay [7] fell in the range of 100 to 1000 nM.

`C[C@@H]1CN(c2ccnc3cc(-c4cnn(C)c4)oc23)C(=O)[C@]1(C#N)C1CC1` [Example 268, (3R,4S)-3-cyclopropyl-4-methyl-1-(2-(1-methyl-1H-pyrazol-4-yl)furo[3,2-b]pyridin-7-yl)-2-oxopyrrolidine-3-carbonitrile]: the IC50 was greater than 10000 nM in assay [1]; 100 to 1000 nM in assay [2]; 50 to 100 nM in assay [3]; 5 to 20 nM in assay [4]; 100 to 1000 nM in assay [5]; 100 to 1000 nM in assay [6]. Moreover, the IC50 in assay [7] fell in the range of 1000 to 5000 nM.

Take `C[C@@H]1CN(c2cc(-c3cnn(C)c3)cn3nccc23)C(=O)[C@]1(C#N)C1CC1` [Example 271, (3R,4S)-3-cyclopropyl-4-methyl-1-(6-(1-methyl-1H-pyrazol-4-yl)pyrazolo[1,5-a]pyridin-4-yl)-2-oxopyrrolidine-3-carbonitrile]: the IC50 in assay [1] is greater than 10000 nM; in assay [2] it was 1000 to 5000 nM; in assay [3] it was greater than 100 nM; in assay [4], 5 to 20 nM; in assay [5] it was 100 to 1000 nM; in assay [6], 100 to 1000 nM. The IC50 in assay [7] is greater than 10000 nM.

Values taken from patent US20260297085A1, “1 H-PYRROLO[2,3-B]PYRIDIN-4-YL]-2-OXOPYRROLIDINE-3-CARBONITRILE DERIVATIVES AS TYROSINE KINASE 2 (TYK2) INHIBITORS FOR THE TREATMENT OF INFLAMMATORY DISEASES” (BIOGEN MA INC., priority 2023, published 2026).
